Source: US7994176B2, “Inhibitors of 11-beta-hydroxysteroid dehydrogenase 1” (Eli Lilly and Company, priority 2006, dated 2011)

Columns and labels:
cortisone conversion = test: Acute in vivo cortisone conversion assay; conditions: male C57BL/6 mice, oral, cortisone challenge 16 hours post dose, serum cortisol
Description: Acute In Vivo Cortisone Conversion Assay
In general, compounds are dosed orally into mice, the mice are challenged with a subcutaneous injection of cortisone at a set timepoint after compound injection, and the blood of each animal is collected some time later. Separated serum is then isolated and analyzed for levels of cortisone and cortisol by LC-MS/MS, followed by calculation of mean cortisol and percent inhibition of each dosing group. Specifically, male C57BL/6 mice are obtained from Harlan Sprague Dawley at average weight of 25 grams. Exact weights are taken upon arrival and the mice randomized into groups of similar weights. Compounds are prepared in 1% w-w HEC, 0.25% w-w polysorbate 80, 0.05% w-w Dow Corning antifoam #1510-US at various doses based on assumed average weight of 25 grams. Compounds are dosed orally, 200 μl per animal, followed by a subcutaneous dose, 200 μl per animal, of 30 mg/kg cortisone at 1 to 24 hours post compound dose. At 10 minutes post cortisone challenge, each animal is euthanized for 1 minute in a CO2 chamber, followed by blood collection via cardiac puncture into serum separator tubes. Once fully clotted, tubes are spun at 2500×g, 4° C. for 15 minutes, the serum transferred to wells of 96-well plates (Corning Inc, Costar #4410, cluster tubes, 1.2 ml, polypropylene), and the plates are frozen at −20° C. until analysis by LC-MS/MS. […]

11β-HSD1 = molecular target: T1, 11β-HSD1 (Homo sapiens, UniProt P28845); test: Human aortic smooth muscle cell assay; type: cell-based; conditions: primary human AoSMC, hTNFα-induced 11β-HSD1, cortisol formed from cortisone
T1 construct: hTNFα to induce expression of 11β-HSD1; endogenous in cells; host or cells: primary human aortic smooth muscle cells (AoSMC), induced with hTNFα
Description: Human Aortic Smooth Muscle Cell Assay
Primary human aortic smooth muscle cells (AoSMC) are cultured in 5% FBS growth medium to a passage number of 6, then pelleted by centrifugation and resuspended at a density of 9×10^4 cells/mL in 0.5% FBS assay medium containing 12 ng/mL hTNFα to induce expression of 11β-HSD1. Cells are seeded into 96-well tissue culture assay plates at 100 μL/well (9×10^3 cells/well) and incubated for 48 hours at 37° C., 5% CO2. Following induction, cells are incubated for 4 hours at 37° C., 5% CO2 in assay medium containing test compounds then treated with 10 μL/well of 10 μM cortisone solubilized in assay medium, and incubated for 16 hours at 37° C., 5% CO2. Medium from each well is transferred to a plate for subsequent analysis of cortisol using a competitive fluorescence resonance time resolved immunoassay. […] Higher levels of free cortisol result in diminishing energy transfer from the Europium-IgG to the APC-cortisol complex resulting in less APC fluorescence. Fluorescent intensities for Europium and APC are measured using a LJL Analyst AD. Europium and APC […] is measured using 360 nm excitation and 615 nm and 650 nm emission filters respectively. […] Fluorescent intensities measured for APC are modified by dividing by the Eu fluorescence (APC/Eu). […]

T1 sequence (P28845 whole entry): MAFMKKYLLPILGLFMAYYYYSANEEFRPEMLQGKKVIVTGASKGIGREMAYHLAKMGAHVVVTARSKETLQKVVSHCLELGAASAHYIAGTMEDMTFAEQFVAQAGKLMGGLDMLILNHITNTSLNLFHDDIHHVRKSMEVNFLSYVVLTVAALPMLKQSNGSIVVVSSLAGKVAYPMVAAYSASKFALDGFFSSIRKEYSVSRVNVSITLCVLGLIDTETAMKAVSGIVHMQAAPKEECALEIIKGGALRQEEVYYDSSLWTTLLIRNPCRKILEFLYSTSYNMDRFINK

O=C(c1ccc(-c2cc(Cl)c(CN3CCC(N4CCCCC4)C3=O)c(Cl)c2)cc1)N1CCC(C(F)(F)F)CC1 (racemic) [Example 16, 1-[3,5-Dichloro-4′-(4-trifluoromethyl-piperidine-1-carbonyl)-biphenyl-4-ylmethyl]-3-piperidin-1-yl-pyrrolidin-2-one]
% Inhibition after 16 hours (cortisone conversion; dose of 10 mg/kg): 38 (dose of 10 (mg/kg)) % | IC50 (11β-HSD1): 0.294 µM

O=C(c1ccc(-c2cc(Cl)c(CN3CCC(C4CCCCC4)C3=O)c(Cl)c2)cc1)N1CCN(CCF)CC1 (racemic) [Example 5, 3-Cyclohexyl-1-{3,5-dichloro-4′-[4-(2-fluoro-ethyl)-piperazine-1-carbonyl]-biphenyl-4-ylmethyl}-pyrrolidin-2-one]
% Inhibition after 16 hours (cortisone conversion; dose of 30 mg/kg): 84 (dose of 30 (mg/kg)) % | IC50 (11β-HSD1): 0.0154 µM
